Measurements: patent US20040176431A1, “Antiproliferative 2-(sulfo-phenyl)-aminothiazole derivatives and pharmaceutical compositions, and methods for their use” (Pfizer, Inc., priority 2003, published 2004)

What was measured:
[1] = biological target: T1, CDK4/cyclin D3 (Homo sapiens, UniProt P11802); experiment: Inhibition of CDK4/Cyclin D retinoblastoma kinase activity; type: biochemical; conditions: apparent Ki, Rb fragment substrate
T1 construct: made in house; host or cells: insect cells (baculovirus co-infection)
Outline: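 Human CDK4 with truncated cyclin D3 (1-264) from baculovirus-infected insect cells, 5 nM, phosphorylating His-tagged Rb fragment (386-928) with 25 μM [32P/33P]ATP in pH 7.4 HEPES/MgCl2, 2% DMSO, 30° C., 20 min (60 min for tight binders). Filter capture, phosphorimager; apparent Ki from competitive or tight-binding competitive fits.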

[2] = biological target: T2, CDK1 (cdc2)/cyclin B (Homo sapiens, UniProt P06493); experiment: Inhibition of CDK1(cdc2)/Cyclin B histone H1 kinase activity; type: biochemical; conditions: apparent Ki, histone H1 substrate
T2 construct: purchased New England Biolabs (Beverly Mass.)
Experimental: (§1) Cyclin-dependent kinase activity was measured by quantifying the enzyme-catalyzed, time-dependent incorporation of radioactive phosphate from [^32P]ATP or [^33P]ATP into a protein substrate. Unless noted otherwise, assays were performed in 96-well plates in a total volume of 50 μL, in the presence of 10 mM HEPES (N-[2-hydroxyethyl]piperazine-N′-[2-ethanesulfonic acid]) (pH 7.4), 10 mM MgCl2, 25 μM adenosine triphosphate (ATP), 1 mg/mL ovalbumin, 5 μg/mL leupeptin, 1 mM dithiothreitol, 10 mM β-glycerophosphate, 0.1 mM sodium vanadate, 1 mM sodium fluoride, 2.5 mM ethylene glycol-bis(β-aminoethyl ether)-N,N,N′N′-tetraacetic acid (EGTA), 2% (v/v) dimethylsulfoxide, and 0.03-0.4 μCi [^32/33P]ATP per reaction. Reactions were initiated with enzyme, incubated at 30° C., and terminated after 20 minutes by the addition of ethylenediaminetetraacetic acid (EDTA) to 250 mM. The phosphorylated substrate was then captured on a nitrocellulose or phosphocellulose membrane using a 96-well filtration manifold, and unincorporated radioactivity was removed by repeated washing with 0.85% phosphoric acid. Radioactivity was quantified by exposing the dried membranes to a phosphorimager.
Inhibition was measured relative to control wells that contained all reaction components including 2% (v/v) DMSO but no compound, after subtraction of background radioactivity measured in the absence of enzyme. Apparent Ki values of discrete compounds were measured by assaying enzyme activity in the presence of different inhibitor compound concentrations and subtracting the background radioactivity measured in the absence of enzyme. The kinetic parameters (kcat, Km for ATP) were measured for each enzyme under the usual assay conditions by determining the dependence of initial rates on ATP concentration. […]
The complex of human CDK1 (cdc2) and cyclin B was purchased from New England Biolabs (Beverly Mass.). […] Phosphorylated histone substrate was captured by microfiltration on a phosphocellulose P81 membrane and quantified using a phosphorimager as described above.

[3] = tested on: HCT-116 cells; experiment: Inhibition of cell growth (MTT tetrazolium salt assay); type: cell-based; conditions: Homo sapiens; for IC50: read-out: HCT116 IC50; for IC90: read-out: HCT116 IC90
Experimental: Inhibition of cell growth was measured using the tetrazolium salt assay, which is based on the ability of viable cells to reduce 3-(4,5-dimethylthiazol-2-yl)-2,5-[2H]-diphenyltetrazolium bromide (MTT) to formazan (Mosmann, J. Immunol. Meth., 65, 55-63 (1983)). The water-insoluble purple formazan product was then detected spectrophotometrically. HCT-116 cells were grown in 96-well plates. Cells were plated in the appropriate medium at a volume of 135 μl/well in either McCoy's 5A Medium. Plates were incubated for four hours before addition of inhibitor compounds. Different concentrations of inhibitor compounds were added in 0.5% (v/v) dimethylsulfoxide (15 μL/well), and cells were incubated at 37° C. (5% CO2) for four to six days (depending on cell type). At the end of the incubation, MTT was added to a final concentration of 0.2 mg/mL, and cells were incubated for 4 hours more at 37° C. After centrifugation of the plates and removal of medium, the absorbance of the formazan (solubilized in dimethylsulfoxide) was measured at 540 nm. […] All results were compared to control cells treated only with 0.5% (v/v) dimethylsulfoxide.

[4] = biological target: T3, CDK2/cyclin A (Homo sapiens, UniProt P24941); experiment: Inhibition of CDK2/Cyclin A retinoblastoma kinase activity; type: biochemical; conditions: apparent Ki, Rb fragment substrate
T3 construct: made in house; host or cells: CDK2: insect cells (baculovirus); cyclin A: E. coli, then limited proteolysis
Experimental: as §1
Inhibition was measured relative to control wells that contained all reaction components including 2% (v/v) DMSO but no compound, after subtraction of background radioactivity measured in the absence of enzyme. Apparent Ki values of discrete compounds were measured by assaying enzyme activity in the presence of different inhibitor compound concentrations and subtracting the background radioactivity measured in the absence of enzyme. The kinetic parameters (kcat, Km for ATP) were measured for each enzyme under the usual assay conditions by determining the dependence of initial rates on ATP concentration. Inhibition data were fit to an equation for competitive inhibition using Kaleidagraph (Synergy Software), or were fit to an equation for competitive tight-binding inhibition using the software KineTic (BioKin, Ltd.).
CDK2 was purified using published methodology (Rosenblatt et al., J. Mol. Biol., 230, 1317-1319 (1993)) from insect cells that had been infected with a baculovirus expression vector. Cyclin A was purified from E. coli cells expressing full-length recombinant cyclin A, and a truncated cyclin A construct was generated by limited proteolysis and purified as described previously (Jeffrey et al., Nature, 376, 313-320 (1995)). A complex of CDK2 and proteolyzed cyclin A was prepared and purified by gel filtration. The substrate for this assay was the same Rb substrate fragment used for the CDK4 assays, and the methodology of the CDK2/delta cyclin A and the CDK4/delta cyclin D3 assays was essentially the same, except that CDK2 was present at 10 nM or 19 nM. The duration of the assay was 60 or 75 minutes, during which the time-dependence of product formation was linear and initial rate conditions were met.

T2 sequence (P06493 whole entry): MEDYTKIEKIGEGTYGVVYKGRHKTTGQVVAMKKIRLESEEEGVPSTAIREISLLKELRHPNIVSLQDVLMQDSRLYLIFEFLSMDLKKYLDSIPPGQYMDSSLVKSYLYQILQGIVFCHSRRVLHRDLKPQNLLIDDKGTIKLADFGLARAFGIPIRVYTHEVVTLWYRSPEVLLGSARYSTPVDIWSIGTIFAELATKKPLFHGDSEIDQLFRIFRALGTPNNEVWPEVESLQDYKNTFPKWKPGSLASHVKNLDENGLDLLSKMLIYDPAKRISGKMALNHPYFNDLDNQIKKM
T2 sequence (P14635 whole entry partner): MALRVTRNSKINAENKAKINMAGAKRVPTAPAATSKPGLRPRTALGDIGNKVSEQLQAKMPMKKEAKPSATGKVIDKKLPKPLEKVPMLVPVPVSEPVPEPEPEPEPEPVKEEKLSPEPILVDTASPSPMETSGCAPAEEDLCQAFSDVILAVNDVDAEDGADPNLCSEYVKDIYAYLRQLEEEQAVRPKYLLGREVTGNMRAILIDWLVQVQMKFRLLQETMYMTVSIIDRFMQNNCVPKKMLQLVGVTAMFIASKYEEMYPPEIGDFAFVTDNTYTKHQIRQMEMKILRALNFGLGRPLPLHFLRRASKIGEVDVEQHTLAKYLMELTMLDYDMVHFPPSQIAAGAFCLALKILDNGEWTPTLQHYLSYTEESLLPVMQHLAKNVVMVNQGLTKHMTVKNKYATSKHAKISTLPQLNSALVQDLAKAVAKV
T1 sequence (P11802 whole entry, the tested form may be a part): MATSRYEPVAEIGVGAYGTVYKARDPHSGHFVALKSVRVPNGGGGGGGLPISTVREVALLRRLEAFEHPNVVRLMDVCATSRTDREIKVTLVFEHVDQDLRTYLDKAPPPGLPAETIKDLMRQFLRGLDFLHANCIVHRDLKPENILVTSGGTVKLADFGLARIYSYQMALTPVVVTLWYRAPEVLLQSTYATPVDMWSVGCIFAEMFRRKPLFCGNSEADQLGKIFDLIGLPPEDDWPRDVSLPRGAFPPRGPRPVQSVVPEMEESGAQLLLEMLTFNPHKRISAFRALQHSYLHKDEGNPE
T1 sequence (P30281 1-264 partner limits assumed): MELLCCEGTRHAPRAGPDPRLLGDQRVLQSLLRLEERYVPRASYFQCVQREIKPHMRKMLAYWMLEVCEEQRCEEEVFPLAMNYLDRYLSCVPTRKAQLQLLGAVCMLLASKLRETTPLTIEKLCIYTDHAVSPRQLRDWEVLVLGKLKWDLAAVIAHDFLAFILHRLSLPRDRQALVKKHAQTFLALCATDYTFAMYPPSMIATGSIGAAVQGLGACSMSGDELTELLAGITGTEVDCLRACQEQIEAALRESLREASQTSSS

Ki [1] [nM]	Ki [2] [nM]	IC50 [3] [nM]	IC90 [3] [nM]	Ki [4] [nM]	SMILES
28	3.9	43	140	< 5	Cc1ccc(CNS(=O)(=O)c2ccc(Nc3nc(N)c(C(=O)c4c(F)cccc4F)s3)cc2)o1 [Example A(11), 4-[4-Amino-5-(2,6-difluoro-benzoyl)-thiazol-2-ylamino]-N-(5-methyl-furan-2-ylmethyl)-benzenesulfonamide]
24	–	1800	3700	5.8	Cc1ccc(CCNS(=O)(=O)c2ccc(Nc3nc(N)c(C(=O)c4c(F)cccc4F)s3)cc2)cc1 [Example A(18), 4-[4-Amino-5-(2,6-difluoro-benzoyl)-thiazol-2-ylamino]-N-(2-p-tolyl-ethyl)-benzenesulfonamide]
24	–	400	1300	1.8	CCSCCNS(=O)(=O)c1ccc(Nc2nc(N)c(C(=O)c3c(F)cccc3F)s2)cc1 [Example A(19), 4-[4-Amino-5-(2,6-difluoro-benzoyl)-thiazol-2-ylamino]-N-(2-ethylsulfanyl-ethyl)-benzenesulfonamide]
14	–	900	2600	< 5	Nc1nc(Nc2ccc(S(=O)(=O)NCCc3ccc(F)cc3)cc2)sc1C(=O)c1c(F)cccc1F [Example A(20), 4-[4-Amino-5-(2,6-difluoro-benzoyl)-thiazol-2-ylamino]-N-[2-(4-fluoro-phenyl)-ethyl]-benzenesulfonamide]
6.8	–	1800	4400	14	CN(C)CCCNS(=O)(=O)c1ccc(Nc2nc(N)c(C(=O)c3c(F)cccc3F)s2)cc1 [Example A(21), 4-[4-Amino-5-(2,6-difluoro-benzoyl)-thiazol-2-ylamino]-N-(3-dimethylamino-propyl)-benzenesulfonamide]

Further lines, the compound ahead of its results:

SMILES	Ki [1] [nM]	Ki [2] [nM]	IC50 [3] [nM]	IC90 [3] [nM]	Ki [4] [nM]
CS(=O)(=O)c1ccc(Nc2nc(N)c(C(=O)c3c(Cl)cccc3Cl)s2)cc1 [AA(2), 4-Amino-5-(2,6-dichlorobenzoyl)-2-(4-methanesulfonyl-phenylamino)-thiazole]	42	93	4500	18000	138
Nc1nc(Nc2ccc(S(=O)(=O)N3CCC(CCO)CC3)cc2)sc1C(=O)c1c(F)cccc1F [Example A(16), (4-Amino-2-{4-[4-(2-hydroxy-ethyl)-piperidine-1-sulfonyl]-phenylamino}thiazol-5-yl)-(2,6-difluoro-phenyl)-methanone]	57	–	1500	3900	18
CC(C)OCCNS(=O)(=O)c1ccc(Nc2nc(N)c(C(=O)c3c(F)cccc3F)s2)cc1 [Example A(17), 4-[4-Amino-5-(2,6-difluoro-benzoyl)-thiazol-2-ylamino]-N-(2-isopropoxy-ethyl)-benzenesulfonamide]	14	–	140	450	2
Cc1cc(F)c(C(=O)c2sc(Nc3ccc(S(=O)(=O)NCCOC(C)C)cc3)nc2N)c(F)c1 [Example CC(1), 4-[4-Amino-5-(2,6-difluoro-4-methyl-benzoyl)-thiazol-2-ylamino]-N-(2-isopropoxy-ethyl)-benzenesulfonamide]	9.7	–	280	480	0.74
CS(=O)(=O)c1ccc(Nc2nc(N)c(C(=O)c3c(F)cccc3F)s2)cc1 [Q(1), 1-[4-Amino-2-(4-methanesulfonyl-phenylamino)-thiazol-5-yl]-1-(2,6-difluoro-phenyl)-methanone]	73	–	1300	3800	210
CSc1ccc(Nc2nc(N)c(C(=O)c3c(Cl)cccc3Cl)s2)cc1 [R(2), 4-Amino-5-(2,6-dichlorobenzoyl)-2-(4-methylthio-phenylamino)-thiazole]	30	–	12000	> 25000	250
NC(=O)CSc1ccc(Nc2nc(N)c(C(=O)c3c(Cl)cccc3Cl)s2)cc1 [Y(1), 2-{4-[4-Amino-5-(2,6-dichloro-benzoyl)-thiazol-2-ylamino]-phenylthio}-acetamide]	11	–	2300	6000	66
Nc1nc(Nc2ccc(SCCO)cc2)sc1C(=O)c1c(Cl)cccc1Cl [Y(2), 4-Amino-5-(2,6-dichlorobenzoyl)-2-[4-(2-hydroxy-ethylthio)-phenylamino]-thiazole]	7.6	–	3900	13000	140
NC(=O)CSc1cccc(Nc2nc(N)c(C(=O)c3c(Cl)cccc3Cl)s2)c1 [Y(3), 2-{3-[4-Amino-5-(2,6-dichloro-benzoyl)-thiazol-2-ylamino]-phenylthio) acetamide]	33	–	11000	> 25000	92
NC(=O)C[S+]([O-])c1ccc(Nc2nc(N)c(C(=O)c3c(Cl)cccc3Cl)s2)cc1 (stereo not drawn) [Z(2), 2-(4-{4-Amino-5-(2,6-dichlorobenzoyl)-thiazol-2-ylamino}-benzenesulfinyl)-acetamide]	15	–	18000	> 25000	62
Nc1nc(Nc2ccc([S+]([O-])CCO)cc2)sc1C(=O)c1c(Cl)cccc1Cl (stereo not drawn) [Z(3), 4-Amino-5-(2,6-dichlorobenzoyl)-2-[4-(2-hydroxy-ethanesulfinyl)-phenylamino]-thiazole]	30	–	6800	16000	170
C[S+]([O-])c1ccc(Nc2nc(N)c(C(=O)c3c(Cl)cccc3Cl)s2)cc1 (stereo not drawn) [Z(4), 4-Amino-5-(2,6-dichlorobenzoyl)-2-(4-methanesulfinyl-phenylamino)-thiazole]	38	120	4000	12000	303
NC(=O)C[S+]([O-])c1cccc(Nc2nc(N)c(C(=O)c3c(Cl)cccc3Cl)s2)c1 (stereo not drawn) [Z(5), 2-{3-[4-Amino-5-(2,6-dichloro-benzoyl)-thiazol-2-ylamino]-benzenesulfinyl}-acetamide]	230	–	> 25000	> 25000	330
